Assay: Evaluation of the plasma half-life for Hydrochlorothiazide for at least 24 hours following administration of Hydrochlorothiazide
Assay type: ADME, organism-based
Conditions: human; dosed compound id 30, dosed compound name HYDROCHLOROTHIAZIDE, tissue Plasma

Q: For `NS(=O)(=O)c1cc2c(cc1Cl)NCNS2(=O)=O` [HYDROCHLOROTHIAZIDE], which half-life is on record?
A: 5.6 to 14.8 h
